According to ChEMBL document CHEMBL5291721, “A preclinical secondary pharmacology resource illuminates target-adverse drug reaction associations of marketed drugs” (Nat Commun, 2023):

Assays:
[1] = biological target: T1, Alpha-1A adrenergic receptor (Homo sapiens, UniProt P35348); type: functional, cell-based
T1 sequence (P35348 whole entry): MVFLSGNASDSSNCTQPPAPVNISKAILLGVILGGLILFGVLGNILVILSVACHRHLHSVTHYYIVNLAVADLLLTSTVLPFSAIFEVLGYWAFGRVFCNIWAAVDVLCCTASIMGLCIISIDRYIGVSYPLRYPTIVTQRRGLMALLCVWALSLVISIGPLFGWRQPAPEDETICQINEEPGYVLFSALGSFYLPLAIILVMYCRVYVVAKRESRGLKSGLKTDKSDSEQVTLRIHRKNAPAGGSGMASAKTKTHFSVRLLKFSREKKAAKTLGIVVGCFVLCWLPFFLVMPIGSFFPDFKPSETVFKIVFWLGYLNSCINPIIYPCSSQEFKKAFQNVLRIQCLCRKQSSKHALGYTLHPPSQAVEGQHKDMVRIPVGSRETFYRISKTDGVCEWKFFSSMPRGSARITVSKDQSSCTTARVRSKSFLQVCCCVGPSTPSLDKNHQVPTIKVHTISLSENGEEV

[2] = biological target: T2, Muscarinic acetylcholine receptor M1 (Homo sapiens, UniProt P11229); type: functional
T2 sequence (P11229 whole entry): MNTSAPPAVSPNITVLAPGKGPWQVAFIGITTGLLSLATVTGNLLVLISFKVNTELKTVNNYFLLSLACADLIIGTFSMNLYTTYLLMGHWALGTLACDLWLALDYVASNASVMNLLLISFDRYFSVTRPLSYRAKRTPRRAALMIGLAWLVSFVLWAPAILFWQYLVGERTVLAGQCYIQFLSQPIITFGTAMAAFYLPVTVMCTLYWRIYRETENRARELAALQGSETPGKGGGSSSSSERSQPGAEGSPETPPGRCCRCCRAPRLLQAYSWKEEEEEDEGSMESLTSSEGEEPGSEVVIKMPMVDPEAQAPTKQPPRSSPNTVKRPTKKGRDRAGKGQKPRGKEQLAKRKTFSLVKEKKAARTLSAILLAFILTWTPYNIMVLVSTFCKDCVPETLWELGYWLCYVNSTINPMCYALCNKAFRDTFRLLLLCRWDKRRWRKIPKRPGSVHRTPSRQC

[3] = biological target: Gamma-aminobutyric acid receptor subunit alpha-1 (Rattus norvegicus, UniProt P62813)
Histamine H1 receptor = Histamine H1 receptor (Homo sapiens, UniProt P35367)
Histamine H2 receptor = Histamine H2 receptor (Homo sapiens, UniProt P25021); type: functional, cell-based
Progesterone receptor [4] = biological target: T3, Progesterone receptor (Homo sapiens, UniProt P06401); type: functional
T3 sequence (P06401 whole entry): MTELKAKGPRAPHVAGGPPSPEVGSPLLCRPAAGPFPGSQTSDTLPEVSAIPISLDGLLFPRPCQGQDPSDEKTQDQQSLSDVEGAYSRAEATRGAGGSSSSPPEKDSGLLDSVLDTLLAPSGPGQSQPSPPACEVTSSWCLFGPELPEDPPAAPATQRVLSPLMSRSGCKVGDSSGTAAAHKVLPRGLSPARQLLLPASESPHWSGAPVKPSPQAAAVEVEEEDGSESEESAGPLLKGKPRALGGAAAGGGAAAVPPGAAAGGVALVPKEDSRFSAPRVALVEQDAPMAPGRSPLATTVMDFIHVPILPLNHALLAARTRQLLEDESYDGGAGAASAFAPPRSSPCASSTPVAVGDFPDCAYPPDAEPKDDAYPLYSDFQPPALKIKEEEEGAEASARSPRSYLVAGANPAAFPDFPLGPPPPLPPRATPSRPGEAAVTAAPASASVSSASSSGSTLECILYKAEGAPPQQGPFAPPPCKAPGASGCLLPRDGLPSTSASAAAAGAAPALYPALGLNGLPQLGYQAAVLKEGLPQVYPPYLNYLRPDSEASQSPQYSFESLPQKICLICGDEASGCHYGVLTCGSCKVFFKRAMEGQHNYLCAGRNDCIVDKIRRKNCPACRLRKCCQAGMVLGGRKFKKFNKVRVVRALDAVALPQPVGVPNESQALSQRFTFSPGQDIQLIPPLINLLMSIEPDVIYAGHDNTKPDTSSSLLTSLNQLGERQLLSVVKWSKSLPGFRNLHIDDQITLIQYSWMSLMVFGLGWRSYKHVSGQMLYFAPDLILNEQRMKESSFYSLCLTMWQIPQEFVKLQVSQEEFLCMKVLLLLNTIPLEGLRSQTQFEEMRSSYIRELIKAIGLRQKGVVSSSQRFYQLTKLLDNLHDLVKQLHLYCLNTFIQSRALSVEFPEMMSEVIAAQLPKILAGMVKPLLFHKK

Progesterone receptor [5] = biological target: T3, Progesterone receptor; type: functional; remark: listed apart in the source
Thromboxane A2 receptor [6] = biological target: T4, Thromboxane A2 receptor (Homo sapiens, UniProt P21731)
T4 sequence (P21731 whole entry): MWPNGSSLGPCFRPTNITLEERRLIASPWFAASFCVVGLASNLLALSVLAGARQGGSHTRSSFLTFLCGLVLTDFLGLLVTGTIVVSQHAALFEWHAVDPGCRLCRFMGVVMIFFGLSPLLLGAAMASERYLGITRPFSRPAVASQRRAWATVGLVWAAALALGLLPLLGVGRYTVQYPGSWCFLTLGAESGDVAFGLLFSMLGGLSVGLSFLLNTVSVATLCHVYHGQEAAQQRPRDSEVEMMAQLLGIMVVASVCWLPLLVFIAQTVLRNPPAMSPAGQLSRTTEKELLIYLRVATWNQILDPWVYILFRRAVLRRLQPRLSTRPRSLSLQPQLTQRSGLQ

[7] = biological target: T1, Alpha-1A adrenergic receptor; type: functional, cell-based; remark: listed apart in the source
[8] = biological target: T1, Alpha-1A adrenergic receptor; type: functional, cell-based; remark: listed apart in the source
[9] = biological target: T2, Muscarinic acetylcholine receptor M1; type: functional, cell-based
Histamine H3 receptor = Histamine H3 receptor (Homo sapiens, UniProt Q9Y5N1)
[10] = biological target: 5-hydroxytryptamine receptor 2B (Homo sapiens, UniProt P41595); type: functional, cell-based
[11] = biological target: cGMP-inhibited 3',5'-cyclic phosphodiesterase 3A (Homo sapiens, UniProt Q14432); type: functional
[12] = biological target: Prostaglandin G/H synthase 1 (Homo sapiens, UniProt P23219); type: functional
Thromboxane A2 receptor [13] = biological target: T4, Thromboxane A2 receptor; type: functional, cell-based
Further: assay procedure not described here.

Histamine H3 receptor, sequence (Q9Y5N1 whole entry): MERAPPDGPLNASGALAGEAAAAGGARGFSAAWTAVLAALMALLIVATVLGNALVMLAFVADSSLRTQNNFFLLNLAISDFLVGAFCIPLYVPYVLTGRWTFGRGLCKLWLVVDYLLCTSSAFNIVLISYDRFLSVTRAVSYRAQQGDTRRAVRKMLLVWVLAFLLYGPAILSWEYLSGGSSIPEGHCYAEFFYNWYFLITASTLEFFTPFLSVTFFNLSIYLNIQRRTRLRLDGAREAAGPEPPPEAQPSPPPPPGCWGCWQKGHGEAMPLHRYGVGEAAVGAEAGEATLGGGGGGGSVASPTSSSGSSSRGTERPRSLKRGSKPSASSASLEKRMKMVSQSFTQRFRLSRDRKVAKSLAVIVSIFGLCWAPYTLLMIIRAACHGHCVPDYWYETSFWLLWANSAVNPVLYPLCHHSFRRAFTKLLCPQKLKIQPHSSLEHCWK
Histamine H1 receptor, sequence (P35367 whole entry): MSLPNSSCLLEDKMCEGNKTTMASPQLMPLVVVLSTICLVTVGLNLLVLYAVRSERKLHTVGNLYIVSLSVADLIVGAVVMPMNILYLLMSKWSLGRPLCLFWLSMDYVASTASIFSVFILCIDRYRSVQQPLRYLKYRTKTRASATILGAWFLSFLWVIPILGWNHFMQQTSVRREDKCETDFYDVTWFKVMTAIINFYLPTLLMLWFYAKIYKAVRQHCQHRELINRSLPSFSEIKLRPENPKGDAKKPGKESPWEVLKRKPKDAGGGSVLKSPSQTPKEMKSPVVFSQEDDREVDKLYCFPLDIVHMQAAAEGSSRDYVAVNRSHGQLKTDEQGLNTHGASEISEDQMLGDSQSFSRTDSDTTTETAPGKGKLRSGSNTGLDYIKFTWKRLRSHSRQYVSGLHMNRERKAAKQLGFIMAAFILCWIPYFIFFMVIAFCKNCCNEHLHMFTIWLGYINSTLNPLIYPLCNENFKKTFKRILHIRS
Prostaglandin G/H synthase 1, sequence (P23219 whole entry): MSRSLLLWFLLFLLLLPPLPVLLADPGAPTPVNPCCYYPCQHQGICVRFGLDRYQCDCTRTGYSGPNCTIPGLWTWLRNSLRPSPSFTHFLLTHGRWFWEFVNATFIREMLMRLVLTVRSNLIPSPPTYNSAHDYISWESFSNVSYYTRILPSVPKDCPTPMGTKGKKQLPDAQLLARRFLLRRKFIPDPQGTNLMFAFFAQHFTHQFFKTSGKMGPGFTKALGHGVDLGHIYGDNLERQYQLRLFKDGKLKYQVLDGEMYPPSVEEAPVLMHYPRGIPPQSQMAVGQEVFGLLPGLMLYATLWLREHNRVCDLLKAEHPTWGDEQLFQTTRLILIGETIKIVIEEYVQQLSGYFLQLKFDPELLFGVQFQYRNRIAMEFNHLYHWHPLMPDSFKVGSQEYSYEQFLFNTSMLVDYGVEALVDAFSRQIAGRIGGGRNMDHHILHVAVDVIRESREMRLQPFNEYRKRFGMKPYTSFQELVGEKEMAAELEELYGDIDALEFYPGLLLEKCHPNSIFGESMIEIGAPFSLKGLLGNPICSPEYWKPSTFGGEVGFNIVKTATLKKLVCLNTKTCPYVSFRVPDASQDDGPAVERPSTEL
cGMP-inhibited 3',5'-cyclic phosphodiesterase 3A, sequence (Q14432 whole entry): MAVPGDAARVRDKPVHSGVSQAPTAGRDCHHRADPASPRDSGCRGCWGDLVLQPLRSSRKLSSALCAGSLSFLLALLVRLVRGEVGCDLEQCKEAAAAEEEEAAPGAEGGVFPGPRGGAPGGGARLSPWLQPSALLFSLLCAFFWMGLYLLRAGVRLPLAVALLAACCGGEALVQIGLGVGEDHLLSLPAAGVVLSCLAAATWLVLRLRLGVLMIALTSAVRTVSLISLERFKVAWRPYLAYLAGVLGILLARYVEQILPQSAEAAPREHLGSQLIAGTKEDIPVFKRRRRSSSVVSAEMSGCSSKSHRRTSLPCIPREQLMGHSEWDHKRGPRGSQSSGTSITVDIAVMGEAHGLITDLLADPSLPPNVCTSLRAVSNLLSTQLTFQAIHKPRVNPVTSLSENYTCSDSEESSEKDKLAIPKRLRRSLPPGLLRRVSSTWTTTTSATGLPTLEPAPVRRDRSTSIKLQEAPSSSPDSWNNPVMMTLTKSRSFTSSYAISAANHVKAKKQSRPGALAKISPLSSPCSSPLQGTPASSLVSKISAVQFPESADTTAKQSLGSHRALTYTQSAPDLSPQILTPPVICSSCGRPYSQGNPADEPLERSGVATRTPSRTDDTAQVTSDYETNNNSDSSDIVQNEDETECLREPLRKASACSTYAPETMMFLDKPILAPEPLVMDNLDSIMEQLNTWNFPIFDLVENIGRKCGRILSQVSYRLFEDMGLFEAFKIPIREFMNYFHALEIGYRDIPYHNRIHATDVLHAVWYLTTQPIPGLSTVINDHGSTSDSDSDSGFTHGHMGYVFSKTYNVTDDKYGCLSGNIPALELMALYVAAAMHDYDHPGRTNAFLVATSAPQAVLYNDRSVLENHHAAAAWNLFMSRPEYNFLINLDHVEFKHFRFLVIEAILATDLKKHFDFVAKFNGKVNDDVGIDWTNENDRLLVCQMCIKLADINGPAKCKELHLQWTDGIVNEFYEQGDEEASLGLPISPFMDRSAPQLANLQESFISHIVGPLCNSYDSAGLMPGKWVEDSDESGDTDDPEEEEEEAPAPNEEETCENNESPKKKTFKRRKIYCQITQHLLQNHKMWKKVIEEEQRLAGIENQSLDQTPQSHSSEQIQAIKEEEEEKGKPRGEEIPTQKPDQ
Gamma-aminobutyric acid receptor subunit alpha-1, sequence (P62813 whole entry): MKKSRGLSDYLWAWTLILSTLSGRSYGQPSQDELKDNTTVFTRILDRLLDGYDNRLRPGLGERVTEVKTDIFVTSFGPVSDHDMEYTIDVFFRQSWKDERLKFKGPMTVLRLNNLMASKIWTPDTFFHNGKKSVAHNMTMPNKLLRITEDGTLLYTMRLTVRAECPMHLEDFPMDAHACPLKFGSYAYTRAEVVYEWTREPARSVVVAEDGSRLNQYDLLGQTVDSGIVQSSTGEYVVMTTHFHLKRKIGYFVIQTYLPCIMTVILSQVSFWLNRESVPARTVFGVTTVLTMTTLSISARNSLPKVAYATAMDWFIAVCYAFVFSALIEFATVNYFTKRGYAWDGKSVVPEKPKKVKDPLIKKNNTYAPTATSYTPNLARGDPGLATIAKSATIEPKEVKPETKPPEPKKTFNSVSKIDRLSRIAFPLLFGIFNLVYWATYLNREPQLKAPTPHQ
5-hydroxytryptamine receptor 2B, sequence (P41595 whole entry): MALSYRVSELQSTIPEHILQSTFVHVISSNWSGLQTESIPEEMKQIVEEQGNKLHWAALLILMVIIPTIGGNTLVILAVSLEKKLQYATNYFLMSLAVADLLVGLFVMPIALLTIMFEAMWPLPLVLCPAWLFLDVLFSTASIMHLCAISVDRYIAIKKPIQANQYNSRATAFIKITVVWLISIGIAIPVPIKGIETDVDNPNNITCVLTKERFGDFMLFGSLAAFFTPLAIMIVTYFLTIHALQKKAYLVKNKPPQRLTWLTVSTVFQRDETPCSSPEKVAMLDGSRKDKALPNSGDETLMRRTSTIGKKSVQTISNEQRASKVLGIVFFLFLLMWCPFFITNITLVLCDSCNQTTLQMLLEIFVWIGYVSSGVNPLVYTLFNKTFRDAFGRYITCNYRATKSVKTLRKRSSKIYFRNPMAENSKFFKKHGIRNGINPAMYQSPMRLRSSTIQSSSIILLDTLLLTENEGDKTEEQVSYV
Histamine H2 receptor, sequence (P25021 whole entry): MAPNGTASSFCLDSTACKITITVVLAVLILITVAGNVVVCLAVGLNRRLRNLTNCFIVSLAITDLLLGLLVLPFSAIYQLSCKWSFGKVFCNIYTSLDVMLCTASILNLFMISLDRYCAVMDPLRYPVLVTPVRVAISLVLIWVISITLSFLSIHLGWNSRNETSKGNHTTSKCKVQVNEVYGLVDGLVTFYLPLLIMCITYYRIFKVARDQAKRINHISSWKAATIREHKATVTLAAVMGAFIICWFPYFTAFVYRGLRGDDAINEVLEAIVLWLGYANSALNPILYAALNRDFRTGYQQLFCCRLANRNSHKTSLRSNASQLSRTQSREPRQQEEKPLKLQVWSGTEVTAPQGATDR

Row | AC50 [1] [µM] | AC50 [2] [µM] | AC50 [3] [µM] | AC50 (Histamine H1 receptor) [µM] | AC50 (Histamine H2 receptor) [µM] | AC50 (Progesterone receptor [4]) [µM] | AC50 (Progesterone receptor [5]) [µM] | AC50 (Thromboxane A2 receptor [6]) [µM] | AC50 [7] [µM] | SMILES | AC50 [8] [µM] | AC50 [9] [µM] | AC50 (Histamine H3 receptor) [µM] | AC50 [10] [µM] | AC50 [11] [µM] | AC50 [12] [µM] | AC50 (Thromboxane A2 receptor [13]) [µM]
1 | > 30 | 13 | 29 | 8.56 | > 30 | > 30 | > 30 | > 30 | > 30 | CC(C)/N=c1\cc2n(-c3ccc(Cl)cc3)c3ccccc3nc-2cc1Nc1ccc(Cl)cc1 [CLOFAZIMINE] |  |  |  |  |  |  | 
2 |  |  |  |  |  |  |  |  |  | CCCCCCCCCCCCCCCC(=O)OC[C@H](COP(=O)([O-])OCC[N+](C)(C)C)OC(=O)CCCCCCCCCCCCCCC [COLFOSCERIL PALMITATE] | > 30 | > 30 | > 30 | > 30 | > 30 | > 30 | > 30
3 |  |  |  |  |  |  |  |  |  | COc1cccc2c1C(=O)c1c(O)c3c(c(O)c1C2=O)C[C@@](O)(C(=O)CO)C[C@@H]3O[C@H]1C[C@H](N)[C@H](O[C@@H]2CCCCO2)[C@H](C)O1 [PIRARUBICIN] | > 1 | > 10 | > 30 | > 30 | > 30 | 0.5 | > 10
4 |  |  |  |  |  |  |  |  |  | O=C(O)[C@H](O)[C@@H](O)[C@H](O)[C@H](O)CO [GLUCONIC ACID] | > 30 | > 30 | > 30 | > 30 | > 30 | > 30 | > 30
5 |  |  |  |  |  |  |  |  |  | CC(C)(Oc1ccc(Cl)cc1)C(=O)NC(=O)NCN1CCOCC1 [PLAFIBRIDE] | > 30 | > 30 | > 30 | > 30 | > 30 | > 30 | > 30
6 |  |  |  |  |  |  |  |  |  | N=C(N)NCC1COc2ccccc2O1 (stereo not drawn) [GUANOXAN] | > 30 | > 30 | > 30 | > 30 | > 30 | > 30 | 19.9
7 | > 30 | > 30 |  | > 30 | > 30 | > 30 | 8.7 |  | > 30 | N[C@@H](Cc1cc(I)c(Oc2cc(I)c(O)c(I)c2)c(I)c1)C(=O)O [LEVOTHYROXINE] |  |  |  |  |  |  | 
8 |  |  |  |  |  |  |  |  |  | N#Cc1ccnc(N2C(=O)CC[C@H]2C(=O)N(c2cncc(F)c2)[C@H](C(=O)NC2CC(F)(F)C2)c2ccccc2Cl)c1 [IVOSIDENIB] | > 30 | > 30 | > 30 | > 30 | > 30 | > 30 | > 30
9 |  |  |  |  |  |  |  |  |  | CC(C)Nc1cccnc1N1CCN(C(=O)c2cc3cc(NS(C)(=O)=O)ccc3[nH]2)CC1 [DELAVIRDINE] | > 30 | 16.4 | > 30 | > 30 | > 30 | > 30 | 23.2
10 |  |  |  |  |  |  |  |  |  | CO[C@@]1(NC(=O)C(C(=O)O)c2ccc(O)cc2)C(=O)N2C(C(=O)O)=C(CSc3nnnn3C)CO[C@@H]21 (stereo partly drawn) [MOXALACTAM] | > 30 | > 30 | > 30 | > 30 | > 30 | 9.25 | > 30
11 | > 30 | > 30 |  | 0.11 | > 30 | > 30 | > 30 |  | > 30 | CN(C)CCOC(c1ccc(Cl)cc1)c1ccccn1 (stereo not drawn) [CARBINOXAMINE] |  |  |  |  |  |  | 
12 |  |  |  |  |  |  |  |  |  | CCCCCCCC/C=C\CCCCCCCC(=O)O [OLEIC ACID] | > 30 | 13.2 | > 30 | > 30 | > 30 | 6.68 | 25.3
13 | > 30 | > 30 | > 30 | > 30 | > 30 | > 30 | > 30 | > 30 | > 30 | CC(=O)NC[C@H]1CN(c2ccc(N3CCOCC3)c(F)c2)C(=O)O1 [LINEZOLID] |  |  |  |  |  |  | 
14 | > 30 | > 30 | > 30 | 25 | > 30 | > 30 | > 30 | > 30 | > 30 | CCN(CC)CCn1c(=O)c(Cc2ccc(OC)cc2)nc2ccccc21 [CAROVERINE] |  |  |  |  |  |  | 
15 | > 30 | > 30 | > 30 | > 30 | > 30 | > 30 | > 30 | > 30 | > 30 | C[C@H](Cn1cnc2c(N)ncnc21)OCP(=O)(O)O [TENOFOVIR ANHYDROUS] |  |  |  |  |  |  | 
16 |  |  |  |  |  |  |  |  |  | CN1CCN(C(c2ccccc2)c2ccc(Cl)cc2)CC1 (stereo not drawn) [CHLORCYCLIZINE] | > 30 | 0.691 | 15.8 | > 30 | > 30 | > 30 | 

Row | SMILES | AC50 [1] [µM] | AC50 [2] [µM] | AC50 [3] [µM] | AC50 (Histamine H1 receptor) [µM] | AC50 (Histamine H2 receptor) [µM] | AC50 (Progesterone receptor [4]) [µM] | AC50 (Progesterone receptor [5]) [µM] | AC50 (Thromboxane A2 receptor [6]) [µM] | AC50 [7] [µM] | AC50 [8] [µM] | AC50 [9] [µM] | AC50 (Histamine H3 receptor) [µM] | AC50 [10] [µM] | AC50 [11] [µM] | AC50 [12] [µM] | AC50 (Thromboxane A2 receptor [13]) [µM]
17 | C[C@H](Nc1ncnc2[nH]cnc12)c1cc2cccc(Cl)c2c(=O)n1-c1ccccc1 [DUVELISIB] | > 30 | > 30 |  | > 30 |  | > 30 | > 30 |  | > 30 |  |  | > 30 | > 30 | 16.8 | > 30 | 15.1
18 | c1cnc2cc3c(cc2n1)[C@@H]1CNC[C@H]3C1 [VARENICLINE] | > 30 | > 30 |  | > 30 |  | > 30 | > 30 |  | > 30 |  |  |  |  |  |  | 
19 | Cn1cnc2c(F)c(Nc3ccc(Br)cc3F)c(C(=O)NOCCO)cc21 [BINIMETINIB] | > 30 | > 30 |  | > 30 |  | > 30 | > 30 |  | > 30 |  |  |  |  |  |  | 
20 | C[C@@H](O)[C@H]1C(=O)N2C(C(=O)O)=C(SCCN=CN)C[C@H]12 [IMIPENEM ANHYDROUS] | > 300 | 260 |  | > 300 |  | > 300 | > 300 |  | > 300 |  |  |  |  |  |  | 
